Read-outs that look alike come from different tables or passages of the source.

Common to all, as to assay type: in vivo, BALB/c mice
Assay [1] concerns TPA-induced inflammatory cell infiltration into the dermis. As to the kind of experiment: Inhibition of TPA-induced inflammatory cell infiltration into the dermis of mice. To be noted: for Relative potency: hydrocortisone acetate = 1.0. On the procedure: (§1) The mice were housed in stainless steel cages, 6 mice per cage under normal laboratory conditions (room temperature at about 22° C.) at least 7 days before the experiments for acclimatization. Food and water were allowed ad libitum throughout the experiment period. The backs of the mice were shaved with an electric clipper two days before each treatment and only those mice showing no hair regrowth were used (i.e., the mice in the resting phase of the hair growth cycle were selected). During treatment, the mice were held with their tails and put on top of the cage so that they grasped the cage and rested there. The solutions were applied to an area approximately 2 cm×2 cm on the shaved back of the mice by using a “Pipetman” to apply the solution. If auranofin ointment or ointment base was applied, the amount was standardized by using a microspatula which was crimped at one end, the ointment was then put into the ridge and the excess removed by means of another microspatula and applied sparingly twice a day. After a fixed time, the mice were killed routinely by cervical dislocation between 9 a.m. and 11 a.m. to avoid variations due to circadian rhythms, and an area (1 cm×1 cm) was excised from the centre of the treated area by scalpel and scissors. The rest of the tissues were disposed by combustion. The tissues were then fixed, embedded, sectioned and stained.
(§2) Infiltration of inflammatory cells was determined by the same image analysis system using the section taken from the block of mouse skin embedded in paraffin wax or Spurr's resin and stained with haematoxylin and eosin or toluidine blue respectively. For each section, 10 fields, unless otherwise stated, were chosen randomly and the cell density per mm^2 of field determined. The average value for the 10 fields was obtained and entered as one value for each mouse. The mean and SEM for the six mice in each treatment group were calculated.
The measurement of the inflammatory cell infiltration included the background values which included other materials in the dermis stained in the same way.
(§3) The percent inhibition of drug on TPA-induced skin responses (i.e., epidermal hyperplasia, inflammatory cell infiltration and skin-fold thickness) was calculated by using the following formula: [formula]
(§4) This provides estimates of (a) the potency, (b) the efficacy or maximum effect (Emax) and the slope of the log concentration-response curve by using Hill coefficient (γ). The Hill Equation may be expressed as follows: [formula] where IC50 is the drug concentration producing 50% of the maximal response and Emax refers to the maximal effect produced by the drug and is also termed efficacy. Efficacy is the measurement of the intrinsic ability of a drug to initiate a response once it occupies receptor sites. […] The Hill coefficient (γ) measures the slope of the dose-effect curve which can be markedly influenced by the shape of the curve that describes the binding of the drug to the receptor. For many drugs, y lies between 0.6 and 1.5. […] On the other hand, when γ is less than 1, with a shallow hyperbolic concentration effect relationship, the activity occurs over a wide range of drug levels.
(§5) In the present study, concentration-response curves were obtained for a series of corticosteroids. In these experiments, curve fitting was accomplished using a computer programme called “The Scientist” (MicroMath Scientific Software, Salt Lake City, Utah, USA.) in which the parameters, Emax, IC50 and Hill coefficient (γ) for each steroids were estimated by using non-linear regression and least square fits.
Mice were divided into treatment groups. TPA and corticosteroids were premixed to the concentrations required and applied to the backs of mice immediately.

Assay [2] concerns TPA-induced epidermal hyperplasia. As to the kind of experiment: Inhibition of TPA-induced epidermal hyperplasia (epidermal thickness) on back skin of mice. Particulars: for Relative potency: hydrocortisone acetate = 1.0. As for the experimental part:
as §1
(§6) Epidermal thickness was determined by image analysis. This image analysis system was a minicomputer (Tracor Northern TN8500) attached to a light microscope (Zeiss Axioplan) and a camcorder (Sony DXC-3000P). Sections were taken from each tissue block and 20 measurements were taken at fixed intervals from each section. The average value for the 20 measurements was obtained and entered as one value for each mouse. The mean and SEM for the six mice in each treatment group were calculated.
as §3, §4, §5
Mice were divided into treatment groups. TPA and corticosteroids were premixed to the concentrations required and applied to the backs of mice immediately. For those steroids not very soluble in acetone (i.e., betamethasone, dexamethasone, hydrocortisone and hydrocortisone acetate), the drugs were dissolved in 100 μL dimethylformamide before further dilution with acetone. The efficacy of corticosteroids in inhibiting epidermal hyperplasia, inflammatory cell infiltration and skin-fold thickness was assessed as described previously. Concentration-response curves were determined after computer-fitting of data.

Assay [3] relates to epidermal thickness. As to the kind of experiment: Time course of TPA effects on skin of mice: epidermal thickness. To be noted: for Increase in epidermal thickness: single application 100 μL TPA 0.01% in acetone. On the procedure:
as §6
(§7) This study was conducted to determine the time course of effects produced by applying TPA to mice and killing at intervals of 1, 2, 3, 5 and 8 days. Peak times for epidermal hyperplasia, dermal inflammation and skin-fold thickness were determined. The object of this study was to determine the best time to sacrifice TPA-treated mice so as to obtain the maximum response to TPA. […] It was thus expected that a compromise time would have to be selected.
(§8) Forty two female BALB/c strain mice were divided into the treatment groups and the mice were treated with a single application (100 μL) of TPA (0.01% in acetone) and sacrificed at days 1, 2, 3, 5 and 8 and the time course of TPA effects on epidermal hyperplasia, dermal inflammatory cell infiltration and skin-fold thickness measured as described in Example 1.

The subject of assay [4] is skin-fold thickness. As to the kind of experiment: Time course of TPA effects on skin of mice: skin-fold thickness. To be noted: for Increase in skin-fold thickness: single application 100 μL TPA 0.01% in acetone. As for the experimental part: The back skin of shaved mice was folded and measured by using a “Etalon” micrometer screw gauge. One measurement was taken for each mouse.
as §7, §8

Assay [5] relates to dermal inflammatory cell density. As to the kind of experiment: Time course of TPA effects on skin of mice: dermal inflammatory cell density. To be noted: for Increase in dermal inflammatory cell density: single application 100 μL TPA 0.01% in acetone. On the procedure:
as §2
The measurement of the inflammatory cell infiltration included the background values which included other materials in the dermis stained in the same way. However, the increase, if there is any, reflects the migration of inflammatory cells.
as §7, §8

Setting [6] is: Hill equation fit, means ± SD, steroid premixed with TPA, topical.
[7] abbreviates: Hill equation fit, means ± SD, steroid premixed with TPA, topical, read-out: IC50 (M × 10^−4).
The mark [8] stands for this setting: IC50 without auranofin divided by IC50 with auranofin (0.2%).
The mark [9] stands for this setting: with auranofin (0.2%), from computer fitted graph, means ± SD, read-out: Apparent IC50 (M × 10^−4) with auranofin.
Setting [10] is: without auranofin, from computer fitted graph, means ± SD, read-out: Apparent IC50 (M × 10^−4) without auranofin.
The mark [11] stands for this setting: Mus musculus, topical, Hill equation fit, means ± SD, steroid premixed with TPA, topical, read-out: IC50 (M × 10^−4).
[12] abbreviates: Mus musculus, Hill equation fit, means ± SD, steroid premixed with TPA, topical, read-out: Emax (% inhibition).

Take `C[C@@H]1C[C@H]2[C@@H]3CCC4=CC(=O)C=C[C@]4(C)[C@@]3(Cl)[C@@H](O)C[C@]2(C)[C@@]1(OC(=O)c1ccco1)C(=O)CCl` [Mometasone furoate, mometasone furoate]: the figures for the “Emax (% inhibition)” value in assay [1] (setting [6]) and in assay [2] (setting [6]) were 89.98 ± 4.88^ % inhibition and 83.31 ± 3.04 % inhibition, respectively. Also, the IC50 in assay [1] (setting [7]) came to 20 ± 5 µM; in assay [1] (from Hill equation, concentration that produced 50% of Emax, read-out: IC50 for inhibition of inflammatory cell infiltration in the dermis (M × 10^−4)), 20 µM; in assay [1] (read from concentration-response curve, concentration that inhibited 50% of the TPA effect, read-out: IC50 for inhibition of inflammatory cell infiltration in the dermis (M × 10^−4)) it was 30 µM; in assay [1] (setting [9]), 0.8 ± 0.1 µM; in assay [1] (setting [10]), 30 ± 5 µM; in assay [2] (setting [7]), 23 ± 4 µM. In addition, the IC50 was determined as 23 µM in assay [2] (from Hill equation, concentration that produced 50% of Emax, read-out: IC50 for inhibition of epidermal thickening (M × 10^−4)); 40 µM in assay [2] (read from concentration-response curve, concentration that inhibited 50% of the TPA effect, read-out: IC50 for inhibition of epidermal thickening (M × 10^−4)); 31 ± 5 µM in assay [2] (setting [9]); 40 ± 4 µM in assay [2] (setting [10]). In addition, the Synergistic factor is reported as 37.50 in assay [1] (setting [8]) and 1.29 in assay [2] (setting [8]). Moreover, the “Synergism with auranofin, inflammatory cell infiltration (in words)” value in assay [1] (auranofin (0.2%), FIG. 2) is on record as “massive synergism”. The “Concentration that, in the absence of auranofin, produced an equal effect to the combination” value in assay [1] (equal to 5×10^−4 M with auranofin (0.2%), FIG. 2) amounted to 1 mM. For the same compound, the Relative potency is listed as 386.65 in assay [1] (from Hill-equation IC50), 366.67 in assay [1] (from IC50 read from curve), 159.43 in assay [2] (from Hill-equation IC50) and 175.0 in assay [2] (from IC50 read from curve). In addition, the “Increase in apparent IC50” value in assay [1] (in presence of auranofin (0.2%), Table 10) is given as “about 3,800%”. Moreover, the “Potency for inhibition of TPA-induced inflammatory cell infiltration (in words)” value in assay [1] (ranking in text) is recorded as “strong to very strong anti-inflammatory effect”. The “Synergism with auranofin, epidermal hyperplasia (in words)” value in assay [2] (auranofin (0.2%) co-administered) is on record as “no synergism or even additive effect”. The “Potency for inhibition of TPA-induced epidermal hyperplasia (in words)” value in assay [2] (ranking in text) is “strong to very strong potencies”.

With `CCCCCCCCCCCCCC(=O)O[C@@H]1[C@@H](C)[C@@]2(O)[C@@H](C=C(CO)C[C@]3(O)C(=O)C(C)=C[C@@H]23)[C@@H]2C(C)(C)[C@]12OC(C)=O` [TPA, 12-O-tetradecanoylphorbol 13-acetate], the “Increase in epidermal thickness” value in assay [3] (Day 1) amounted to 326%; in assay [3] (Day 2), 382%; in assay [3] (Day 3) it was 393%; in assay [3] (Day 5) it was 270%; in assay [3] (Day 8) it was 130%. Also, the “Time of peak effect, epidermal hyperplasia” value in assay [3] (single application of TPA) turned out to be 72 h. Moreover, the “Increase in skin-fold thickness” value is given as 193% in assay [4] (Day 1); 142% in assay [4] (Day 2); 124% in assay [4] (Day 3); 116% in assay [4] (Day 5); 107% in assay [4] (Day 8). For the same compound, in assay [4] (single application of TPA), the “Time of peak effect, skin-fold thickening” value is 24 h. The “Increase in dermal inflammatory cell density” value in assay [5] (Day 1) came out at 397%; in assay [5] (Day 2), 296%; in assay [5] (Day 3) it was 272%; in assay [5] (Day 5), 280%; in assay [5] (Day 8), 225%. The “Time of peak effect, dermal inflammation” value in assay [5] (single application of TPA) was 24 h.

Usually Emax stands for the maximal effect, on the per cent scale that the assay sets. `CC1(C)O[C@@H]2C[C@H]3[C@@H]4CCC5=CC(=O)C=C[C@]5(C)[C@@]4(F)[C@@H](O)C[C@]3(C)[C@]2(C(=O)CO)O1` [Triamcinolone acetonide]: the IC50 in assay [1] (Mus musculus, from Hill equation, concentration that produced 50% of Emax, read-out: IC50 for inhibition of inflammatory cell infiltration in the dermis (M × 10^−4)) turned out to be 39 µM; in assay [1] (Mus musculus, read from concentration-response curve, concentration that inhibited 50% of the TPA effect, read-out: IC50 for inhibition of inflammatory cell infiltration in the dermis (M × 10^−4)), 70 µM; in assay [1] (setting [11]) it was 39 ± 3 µM; in assay [2] (Mus musculus, from Hill equation, concentration that produced 50% of Emax, read-out: IC50 for inhibition of epidermal thickening (M × 10^−4)), 113 µM; in assay [2] (Mus musculus, read from concentration-response curve, concentration that inhibited 50% of the TPA effect, read-out: IC50 for inhibition of epidermal thickening (M × 10^−4)) it was 140 µM; in assay [2] (setting [11]) it was 113 ± 35 µM. In addition, the Emax in assay [1] (setting [12]) turned out to be 77.2 ± 1.26%; in assay [2] (setting [12]), 89.8 ± 6.4%. Further, the Relative potency in assay [1] (from Hill-equation IC50) was found to be 198.28; in assay [1] (from IC50 read from curve), 157.14; in assay [2] (from Hill-equation IC50) it was 32.45; in assay [2] (from IC50 read from curve), 50.0.

The record behind these values is patent publication US20050267204A1, “Synergistic gold-containing compositions” (MEDICAL INNOVATIONS LIMITED, priority 1996, published 2005).
